Laboratory results from paper PMC5146660, “Functional and structural characterization of a novel putative cysteine protease cell wall-modifying multi-domain enzyme selected from a microbial metagenome” (Scientific Reports, 2016).

Biological target: T1, PCP (putative cysteine protease)
T1 construct: domains 1-48, 49-185 (CHAP, Cys100/His161), 186-247 (PGBD), 248-319 (SH3); monomer; printed peptide 178PVTDALKR185; primers encode start (M)LGQISTA and end KYARLVE
Assay: tryptophan fluorescence quenching, double-logarithm regression
Format: binding, uncultured bacterium (Capra hircus rumen metagenome)
Conditions: 50 mM NaH2PO4, 300 mM NaCl, 200 mM imidazole, pH 8.5, 25 °C; protein 5.28 μM; excitation 295 nm; read-out: Kb (converted)

CC1(C)S[C@@H]2[C@H](NC(=O)[C@H](N)c3ccccc3)C(=O)N2[C@H]1C(=O)O [ampicillin]
Kd: 5.56 µM
